Results on three compounds are retold here after patent EP1484329A1, “Indole derivatives with apoptosis inducing activity” (Zentaris GmbH, priority 2003, dated 2004).

Converted amounts (≈) assume the structure as drawn. Like-named read-outs stand apart in the source and are kept apart here.

The target in assay [1] is Topoisomerase II (Homo sapiens, UniProt P11388). The assay is described as follows: pRYG relaxation assay for topoisomerase II activity. The class given is biochemical. To be noted: tested at 100, 31.6 and 10 µM. How it is done: Mit diesem Relaxationsassay konnte zusätzlich die inhibitorische Eigenschaft der erfindungsgemäßen Verbindungen auf Topoisomerase II gezeigt werden. Die Testung der erfindungsgemäßen Verbindungen 2 und 4 erfolgte hierbei bei drei unterschiedlichen Konzentrationen (100, 31.6 und 10 µM). Zum Vergleich setzte man die Referenzverbindung m-Amsacrin bei einer Konzentration von 100µM ein.
Zu 1µL vorgelegter Testsubstanz (20fach konzentriert in 100% DMSO) werden 2µL 10x Assay Puffer, 0,5µL pRYG DNA (125ng), 0,5µL human Topoisomerase II (1 unit) und 16µL H2O pipettiert und gemischt. Die Reaktionsansätze werden in den auf 37°C vorgeheizten Heizblock gestellt und 30min bei 37°C inkubiert. Die Inkubation wird nach Zugabe von 4µL 5x Stop Puffer abgestoppt. Danach werden 10µL des Ansatzes auf ein 1,2% Agarosegel mit 0,25µg/mL Ethidiumbromid aufgetragen und 2,5h bei 100V aufgetrennt. Zum Schluß wird das Gel unter UV Anregung fotografiert (s. Graph 3). Die Quantifizierung der Inhibierung der pRYG Relaxation erfolgt mit der GeIPro® Analyzer Software (s. Graph 4). [formula] [formula]

Assay [2] concerns KB/HeLa. In words: XTT proliferation assay, KB/HeLa. It is filed as cell-based. To be noted: Homo sapiens, read-out: XTT Proliferationsassay, EC50 KB/Hela. From the text:
(§1) Die Substanzen 1,2, 4-6 wurden in einem Proliferationstest an etablierten Tumorzelllinien auf ihre anti-proliferative Aktivität hin untersucht (D.A. Scuderio et al. Cancer Res. 1988, 48, 4827-4833). Der verwendete Test bestimmt die zelluläre Dehydrogenase-Aktivität und ermöglicht eine Bestimmung der Zellvitalität und indirekt der Zellzahl. Bei den verwendeten Zelllinien handelt es sich um die humane Cervixkarzinom Zelllinie KB/HeLa (ATCC CCL17), die ovariale Adenokarzinomzelllinie SKOV-3 (ATCC HTB77), die humane Glioblastom Zelllinie SF-268 (NCI 503138) und die Lungenkarzinom Zelllinie NCI-H460 (NCI 503473). Des weiteren wurde zur Untersuchung der Zellzyklus-spezifischen Wirkung der Substanz ein RKOp27 Zellsystem verwendet (M. Schmidt et al. Oncogene19(20):2423-9, 2000). Bei RKO handelt es sich um eine humane Kolonkarzinomlinie, in der der Zellzyklusinhibitor p27 ^kip1 mittels des Ecdyson Expressionssystems induziert zur Expression gebracht und zu einem Zellzyklusarrest spezifisch in G2 geführt werden kann. Eine unspezifisch wirkende Substanz hemmt die Proliferation unabhängig davon, ob die RKO Zelle in G1 oder G2 arretiert ist oder nicht. Zellzyklus-spezifische Substanzen wie beispielsweise Tubulininhibitoren sind hingegen nur dann zytotoxisch, wenn Zellen nicht arretiert sind und der Zellzyklus durchlaufen wird. In Tabelle 1 ist die zytotoxische bzw. wachstumshemmende Aktivität der beschriebenen Verbindungen mit / ohne Expression von p27^kip1gezeigt. Die getesteten Verbindungen zeigten im induzierten Zustand von p27^kiP1 keine zytotoxische Aktivität. Die Ergebnisse zeigen eine sehr potente Hemmung der Proliferation ausgewählter Tumorzelllinien durch die genannten Substanzen.
In general terms: Formazan colour is commonly taken as a measure of viable cells.

Assay [3] deals with SKOV-3. The assay is described as follows: XTT proliferation assay, SKOV-3. It is filed as cell-based. To be noted: Homo sapiens, SK-OV-3; read-out: XTT Proliferationsassay, EC50 SKOV3.
Excerpt: as §1

Assay [4] relates to SF-268. The assay is described as follows: XTT proliferation assay, SF-268. To be noted: Homo sapiens, read-out: XTT Proliferationsassay, EC50 SF-268. It is filed as cell-based.
Excerpt: as §1

Assay [5] relates to LT12. In words: XTT proliferation assay, LT12 (wild type). It is filed as cell-based.
Excerpt: as §1, with “Substanzen. Tabelle 1:” for “Substanzen.”
(§2) Zur weiteren Charakterisierung wurden die Substanzen 1,2,4-6 gegenüber multi drug resistenten Zelllinien im Vergleich zu den nicht-resistenten Wildtypzelllinien untersucht.
(§3) Bei den untersuchten Zelllinien handelt es sich um die murine L1210, die akute myeloische Leukaemie Zelllinie LT12 und um die resistenten Linien L1210/mdr und LT12/mdr. Außerdem wurden die murine P388 Zelllinie (methyl-cholanthreneinduced lymphoid neoplasm) sowie die Doxorubicin-resistente P388 als Testsysteme herangezogen.

For assay [6], the system named is L1210VCR. The assay is described as follows: XTT proliferation assay, L1210VCR (resistant). It is filed as cell-based, murine.
Excerpt: as §1, with “Substanzen. Tabelle 1:” for “Substanzen.”
as §2, §3

The subject of assay [7] is P388. In words: XTT proliferation assay, P388 (wild type). The class given is cell-based, murine.
Excerpt: as §1, with “Substanzen. Tabelle 1:” for “Substanzen.”
as §2, §3

Assay [8] has as its system KB/HeLa Zellen. The assay is described as follows: Cell cycle analysis (G2/M arrest). The class given is cell-based. Particulars: Homo sapiens, read-out: EC50 in nM (50% cells in G2/M). How it is done: Für die Zellzyklusanalyse wurden KB/HeLa Zellen mit den Testsubstanzen in unterschiedlichen Konzentrationen (0.1-1000 nM) 24 Stunden bei 37°C behandelt.
Der prozentuale Anteil der in der G2/M Phase des Zellzyklus arrettierten Zellen nach Behandlung mit Referenz- oder ausgewählten Testsubstanzen ist in der nachfolgenden Tabelle 5 dargestellt. Die Ergebnisse wurden mit einer speziellen Analysesoftware (ModFit™) ausgewertet.

The subject of assay [9] is U-937 Zelllinie. The assay is described as follows: CDDplus nucleosome ELISA (apoptosis detection). It is filed as cell-based. To be noted: U-937, 0.1-1000nM, 4-24h. How it is done:
Zum Nachweis der Nucleosomen Partikel wurde der von der Firma Roche Molecular Biochemicals beschriebene CDD^plus Nucleosomen ELISA Test eingesetzt. Hierzu untersuchte man die Verbindung 2 an der U-937 Zelllinie bei unterschiedlichen Konzentrationen (0.1-1000nM) und bei unterschiedlicher zeitlicher Behandlung (4-24h) (s. Graph 7). [formula]
(An ELISA detects its analyte on a solid surface through an enzyme-linked reagent.)

Topoisomerase II, sequence (P11388 whole entry): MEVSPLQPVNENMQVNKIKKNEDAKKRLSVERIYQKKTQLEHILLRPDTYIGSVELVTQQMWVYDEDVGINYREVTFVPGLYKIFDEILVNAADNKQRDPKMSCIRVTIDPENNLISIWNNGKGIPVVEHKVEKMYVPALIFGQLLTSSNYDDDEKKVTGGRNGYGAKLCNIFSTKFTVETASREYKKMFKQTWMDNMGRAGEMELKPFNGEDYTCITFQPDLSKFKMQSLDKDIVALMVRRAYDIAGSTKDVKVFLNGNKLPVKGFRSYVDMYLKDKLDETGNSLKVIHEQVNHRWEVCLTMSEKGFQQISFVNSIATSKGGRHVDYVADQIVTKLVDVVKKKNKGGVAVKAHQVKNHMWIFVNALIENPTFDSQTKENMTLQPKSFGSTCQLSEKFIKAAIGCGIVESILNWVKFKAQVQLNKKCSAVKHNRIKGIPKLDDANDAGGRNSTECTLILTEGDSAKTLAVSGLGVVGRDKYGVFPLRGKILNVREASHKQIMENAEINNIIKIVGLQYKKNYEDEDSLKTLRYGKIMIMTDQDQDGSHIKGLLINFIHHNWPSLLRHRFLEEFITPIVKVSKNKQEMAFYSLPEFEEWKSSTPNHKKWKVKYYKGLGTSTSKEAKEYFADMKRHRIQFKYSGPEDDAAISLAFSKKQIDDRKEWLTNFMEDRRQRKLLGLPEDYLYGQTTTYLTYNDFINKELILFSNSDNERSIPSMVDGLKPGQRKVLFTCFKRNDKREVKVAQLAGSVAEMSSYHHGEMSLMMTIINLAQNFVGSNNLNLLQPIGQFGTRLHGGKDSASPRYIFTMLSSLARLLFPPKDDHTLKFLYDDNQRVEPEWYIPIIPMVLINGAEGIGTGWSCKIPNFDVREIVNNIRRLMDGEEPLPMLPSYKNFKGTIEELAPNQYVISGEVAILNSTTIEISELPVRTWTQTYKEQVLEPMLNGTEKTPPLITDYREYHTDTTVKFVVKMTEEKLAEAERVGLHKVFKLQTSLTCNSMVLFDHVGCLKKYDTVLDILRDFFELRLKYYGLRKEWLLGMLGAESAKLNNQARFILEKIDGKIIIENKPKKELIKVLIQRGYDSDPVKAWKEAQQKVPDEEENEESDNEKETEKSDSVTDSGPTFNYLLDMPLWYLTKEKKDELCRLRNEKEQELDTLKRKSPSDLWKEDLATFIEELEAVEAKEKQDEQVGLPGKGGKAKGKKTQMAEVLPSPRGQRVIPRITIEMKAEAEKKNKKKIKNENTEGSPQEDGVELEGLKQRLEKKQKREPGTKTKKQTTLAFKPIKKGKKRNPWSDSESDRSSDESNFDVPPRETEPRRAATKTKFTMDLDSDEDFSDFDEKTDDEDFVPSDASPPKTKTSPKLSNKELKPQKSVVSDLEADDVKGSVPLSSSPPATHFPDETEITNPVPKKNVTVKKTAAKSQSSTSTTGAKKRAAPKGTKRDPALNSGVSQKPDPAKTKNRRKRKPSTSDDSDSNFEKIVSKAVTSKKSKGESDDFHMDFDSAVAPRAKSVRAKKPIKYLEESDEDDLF

With `O=C(Nc1ccc2ncccc2c1)C(=S)c1cn(Cc2ccc(Cl)cc2)c2ccccc12` [Verbindung 4, 2-[1-(4-Chlorbenzyl)-1 H-indol-3-yl]-N-chinolin-6-yl-2-thioxoacetamid], the “Hemmung der Topoisomerase II (pRYG Relaxationsassay)” value in assay [1] is listed as “signifikante Hemmung der Topoisomerase II”.

With `O=C(Nc1ccc2ncccc2c1)C(=O)c1cn(Cc2ccc(Cl)cc2)c2ccccc12` [Verbindung 2, 2-[1-(4-Chlor-benzyl)-1 H-indol-3-yl]-2-oxo-N-chinolin-6-yl-acetamid], the EC50 in assay [2] came to 0.027 µg/mL (≈ 0.0614 µM); in [3] it was 0.018 µg/mL (≈ 0.0409 µM); in assay [4], 0.027 µg/mL (≈ 0.0614 µM); in assay [5] (Rattus norvegicus, LT12, read-out: XTT Proliferationsassay, EC50 LT12), 0.044 µg/mL (≈ 0.1 µM); in [6] (Mus musculus, read-out: XTT Proliferationsassay, EC50 L1210VCR), 0.078 µg/mL (≈ 0.177 µM); in assay [7] (Mus musculus, P388, read-out: XTT Proliferationsassay, EC50 P388), 0.037 µg/mL (≈ 0.0841 µM). In addition, in assay [8] (HeLa, 24 h), the EC50 was found to be 52.3 nM. The “Hemmung der Topoisomerase II (pRYG Relaxationsassay)” value in [1] is given as “signifikante Hemmung der Topoisomerase II”. Further, in assay [9] (cell lysate), the “Nucleosomen im Zelllysat” value is reported as “konzentrations- und zeitabhängiger Anstieg von Nucleosomen im Zelllysat”. For the same compound, the “Nucleosomen im Zellkulturüberstand” value in assay [9] (culture supernatant) was “kein signifikanter Anstieg”.

For `O=C(Nc1cnc2nccnc2c1)C(=O)c1cn(Cc2ccc(Cl)cc2)c2ccccc12` [Verbindung 5, 2-[1-(4-Chlor-benzyl)-1H-indol-3-yl]-2-oxo-N-pyrido[2,3-b]pyrazin-7-yl-acetamid], the EC50 in assay [2] worked out at 0.045 µg/mL (≈ 0.102 µM); in [3], 0.029 µg/mL (≈ 0.0656 µM); in [4] it was 0.042 µg/mL (≈ 0.095 µM); in assay [5] (Rattus norvegicus, LT12; read-out: XTT Proliferationsassay, EC50 LT12), 0.015 µg/mL (≈ 0.0339 µM); in assay [6] (Mus musculus; read-out: XTT Proliferationsassay, EC50 L1210VCR), 0.021 µg/mL (≈ 0.0475 µM); in assay [7] (Mus musculus, P388; read-out: XTT Proliferationsassay, EC50 P388) it was 0.012 µg/mL (≈ 0.0272 µM). Further, the EC50 in [8] (KB/HeLa, 24 h at 37°C, 0.1-1000 nM) was 31.9 nM.
